# Data reported in US20020091273A1, “Method for the regioselective preparation of substituted benzo[g]quinoline3-carbonitriles and benzo[g]quinazolines” (American Home Products Corporation, priority 2000, published 2002).
# Counter-ions that a name gives are not always drawn.
row,melting point,SMILES
1,210 to 225 °C,"COc1cc2cc3c(Nc4ccc(Br)cc4F)ncnc3cc2cc1OCCN1CCOCC1 (as salt: hydrochloride) [Example 32, (4-Bromo-2-fluorophenyl)-[7-methoxy-8-(2-morpholin-4-yl-ethoxy)benzo[g]quinazolin4-yl]-amine]"
2,258 to 260 °C,"COc1cc(Nc2ncnc3cc4cc(OCCN5CCOCC5)c(OC)cc4cc23)c(Cl)cc1Cl (as salt: hydrochloride) [Example 33, (2,4-Dichloro-5-methoxyphenyl)-[7-methoxy-8-(2-morpholin-4-yl-ethoxy)benzo[g]-quinazolin-4-yl]-amine]"
3,103 to 105 °C,"COc1cc(CBr)c(Br)cc1OCc1ccccc1 [Example 1, 5-(Benzyloxy)-1-bromo-2-(bromomethyl)-4-methoxybenzene]"
4,52 to 53 °C,"COc1cc(CCC#N)c(Br)cc1OCc1ccccc1 [Example 2, 3-(4-Benzyloxy-2-bromo-5-methoxyphenyl)-propionitrile]"
5,85 °C,"COc1cc2c(cc1OCc1ccccc1)C(C#N)C2 (centres unmarked) [Example 3, 4-Benzyloxy-3-methoxybicyclo[4.2.0]octa-1,3,5-triene-7-carbonitrile]"
6,114 to 115 °C,"COc1cc2c(cc1OCc1ccccc1)C(C#N)(Sc1ccc(Cl)cc1)C2 (centres unmarked) [Example 4, 4-Benzyloxy-7-(4-chloro-phenylsulfanyl)-3-methoxybicyclo [4.2.0]octa-1,3,5-triene-7-carbonitrile]"
7,109 to 110 °C,"COc1cc2c(cc1OCc1ccccc1)C(C#N)(Sc1ccccc1)C2 (centres unmarked) [Example 5, 4-Benzyloxy-3-methoxy-7-phenylsulfanylbicyclo [4.2.0]octa-1,3,5-triene-7-carbonitrile]"
8,179 to 180 °C,"COc1cc2cc(C(=O)OC(C)(C)C)c(N)cc2cc1OCc1ccccc1 [Example 7, 3-Amino-6-benzyloxy-7-methoxynaphthalene-2-carboxylic acid tert-butyl ester]"
9,> 300 °C,"COc1cc2cc3c(=O)c(C#N)c[nH]c3cc2cc1OCc1ccccc1 [Example 8, 8-Benzyloxy-7-methoxy-4-oxo-1,4-dihydrobenzo[g]quinoline-3-carbonitrile]"
10,262 to 263 °C,"COc1cc2cc(C(=O)OC(C)(C)C)c(N)cc2cc1O [Example 9, 3-Amino-6-hydroxy-7-methoxy-naphthalene-2-carboxylic acid tert-butyl ester]"
11,125 to 127 °C,"COc1cc2cc(C(=O)OC(C)(C)C)c(N)cc2cc1OCCN1CCOCC1 [Example 10, 3-Amino-7-methoxy-6-(2-morpholin-4-yl-ethoxy)-naphthalene-2-carboxylic acid tert-butyl ester]"
12,230 to 232 °C,"COc1cc2cc3c(=O)[nH]cnc3cc2cc1OCCN1CCOCC1 [Example 11, 7-Methoxy-8-(2-morpholin4-yl-ethoxy)-3H-benzo[g]quinazolin-4-one]"
13,275 °C (dec.),"COc1cc2cc3c(=O)c(C#N)c[nH]c3cc2cc1OCCN1CCOCC1 [Example 12, 7-Methoxy-8-(2-morpholin-4-yl-ethoxy)-4-oxo-1,4-dihydrobenzo[g]quinoline-3-carbonitrile]"
14,> 300 °C,"COc1cc2cc3c(=O)c(C#N)c[nH]c3cc2cc1O [Example 13, 8-Hydroxy-7-methoxy-4-oxo-1,4-dihydrobenzo[g]quinoline-3-carbonitrile]"
15,> 300 °C,"COc1cc2cc3c(Cl)c(C#N)cnc3cc2cc1O [Example 14, 4-Chloro-8-hydroxy-7-methoxybenzo[g]quinoline-3-carbonitrile]"
16,> 300 °C,"COc1cc2cc3c(Nc4ccc(Sc5nccn5C)c(Cl)c4)c(C#N)cnc3cc2cc1O [Example 15, 4-[3-Chloro-4-(1-methyl-1 H-imidazol-2-ylsulfanyl)phenylamino]-8-hydroxy-7-methoxybenzo[g]quinoline-3-carbonitrile]"
17,> 300 °C,"COc1cc2cc3c(Nc4ccc(Sc5nccn5C)c(Cl)c4)c(C#N)cnc3cc2cc1OCCN1CCOCC1 [Example 17, 4-[3-Chloro-4-(1-methyl-1H-imidazol-2-ylsulfanyl)phenylamino]-7-methoxy-8-(2-morpholin-4-yl-ethoxy)benzo[g]quinoline-3-carbonitrile]"
18,201 to 207 °C,"COc1cc2cc3c(Nc4ccc(Sc5nccn5C)c(Cl)c4)c(C#N)cnc3cc2cc1OCCn1ccnn1 [Example 22, 4-[3-Chloro-4-(1-methyl-1H-imidazol-2-ylsulfanyl)phenylamino]-7-methoxy-8-(2-[1,2,3]triazol-1-yl-ethoxy)benzo[g]quinoline-3-carbonitrile]"
19,220 to 223 °C,"COc1cc(Nc2c(C#N)cnc3cc4cc(OCCCCl)c(OC)cc4cc23)c(Cl)cc1Cl [Example 24, 8-(3-Chloropropoxy)-4-(2,4-dichloro-5-methoxyphenylamino)-7-methoxybenzo[g]quinoline-3-carbonitrile]"
20,205 to 208 °C,"COc1cc(Nc2c(C#N)cnc3cc4cc(OCCCN5CCOCC5)c(OC)cc4cc23)c(Cl)cc1Cl [Example 25, 4-(2,4-Dichloro-5-methoxyphenylamino)-7-methoxy-8-(3-morpholin-4-yl-propoxy)benzo[g]quinoline-3-carbonitrile]"
21,241 to 243 °C,"COc1cc2cc(C#N)c(N)cc2cc1OCc1ccccc1 [Example 29, 3-Amino-6-benzyloxy-7-methoxynaphthalene-2-carbonitrile]"
22,275 to 280 °C,"COc1cc(Nc2ncnc3cc4cc(OCc5ccccc5)c(OC)cc4cc23)c(Cl)cc1Cl [Example 30, (8-Benzyloxy-7-methoxybenzo[g]quinazolin-4-yl)-(2,4-dichloro-5-methoxyphenyl)amine]"
23,166 to 168 °C,"COc1cc2cc3c(Cl)ncnc3cc2cc1OCCN1CCOCC1 [Example 31, 4-Chloro-7-methoxy-8-(2-morpholin-4-yl-ethoxy)benzo[g]quinazoline]"
